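Five concentrations, 48 hours, 96-well plates. At the GI50, growth is halved. TGI: concentration producing complete growth inhibition.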 Where a SMILES comes first, the peptide text is derived from it. [ ]: non-standard residue; d: D form. The star is where a group is joined. ξ: configuration not given here. ξF = NC(Cc1ccccc1)C(=O)O; Cbz = O=C(OCc1ccccc1)*; Aib = CC(C)(N)C(=O)O
Columns and labels:
Experiment in all cases: inhibition of tumour cell growth, NCI panel, 48 h
BT-549 breast = test system: BT-549 breast
HS 578T breast = test system: HS 578T breast
MDA-MB-231 breast = test system: MDA-MB-231 breast
A498 renal = test system: A498 renal
DU-145 prostate = test system: DU-145 prostate
K-562 leukemia = test system: K-562 leukemia
SNB-75 CNS = test system: SNB-75 CNS
RXF-631 renal = test system: RXF-631 renal
HOP-18 NSCLC = test system: HOP-18 NSCLC
XF 498 CNS = test system: XF 498 CNS
SNB-78 CNS = test system: SNB-78 CNS
LXFL 529 NSCLC = test system: LXFL 529 NSCLC
KM20L2 colon = test system: KM20L2 colon

Row | SMILES | TGI (BT-549 breast) [µM] | TGI (HS 578T breast) [µM] | TGI (MDA-MB-231 breast) [µM] | TGI (A498 renal) [µM] | TGI (DU-145 prostate) [µM] | TGI (K-562 leukemia) [µM] | TGI (SNB-75 CNS) [µM] | TGI (HOP-18 NSCLC) [µM] | TGI (XF 498 CNS) [µM] | TGI (LXFL 529 NSCLC) [µM] | TGI (KM20L2 colon) [µM] | also measured
1 | CC(=O)ON1C(=O)c2cccc3cccc(c23)C1=O | 74.5 | 79.3 | > 100 | 71.5 | 40.2 | > 100 | – | – | – | – | – | –
2 | CCOC(=O)CCC(NC(=O)OCc1ccccc1)C(=O)NC(CCC(=O)OCC)C(=O)NNC(=O)OC(C)(C)C (stereo not drawn) | > 100 | > 100 | – | – | > 100 | > 100 | > 100 | – | – | – | – | –
3 | c1cncc(O[Si](Oc2cccnc2)(Oc2cccnc2)Oc2cccnc2)c1 | – | – | – | – | – | – | > 100 | > 100 | > 100 | – | – | TGI (RXF-631 renal): > 100 µM; TGI (SNB-78 CNS): > 100 µM
4 | Nc1c(-c2ccccc2[N+](=O)[O-])nc2ccccn12 | – | – | – | – | – | > 100 | – | – | – | > 100 | > 100 | –
5 | C[CH2][Ge]([CH2]C)([CH2]C)[O]C(=O)CCC(=O)[O][Ge]([CH2]C)([CH2]C)[CH2]C | – | – | – | – | – | > 100 | – | > 100 | > 100 | > 100 | > 100 | GI50 (LXFL 529 NSCLC): 42.5 µM; GI50 (KM20L2 colon): > 100 µM; GI50 (HOP-18 NSCLC): > 100 µM; GI50 (XF 498 CNS): > 100 µM; GI50 (K-562 leukemia): 29.6 µM
6 | COC(=O)C(C)(C)NC(=O)C(Cc1ccccc1)NC(=O)C(C)(C)NC(=O)OCc1ccccc1 (stereo not drawn) (Cbz-[Aib]-[ξF]-[Aib]-OMe) | – | – | > 100 | > 100 | > 100 | > 100 | – | – | – | – | – | –
